Laboratory results as given in paper PMC4488747, “Inhibition of P-glycoprotein Gene Expression and Function Enhances Triptolide-induced Hepatotoxicity in Mice” (Scientific Reports, 2015).

Tests used:
[1] = Triptolide plasma toxicokinetics in mice; assay type: in vivo; details: TP 1.0 mg/kg iv
Experimental: (§1) For TP plasma kinetic study and toxicological evaluation, mice were divided into four groups (n = 5 each) to collect blood and tissue samples: (1) normal + saline group; (2) 1.0 mg/kg TP + 15 nmol NC-siRNA group; (3) 1.0 mg/kg TP + 15 nmol mdr1a-siRNA group; (4) 1.0 mg/kg TP + 10 mg/kg tariquidar group. In order to avoid the complication caused by drug absorption or possible intestinal first-pass effect, TP and the inhibitor were intravenously administrated to mice. The siRNA group was intravenously injected with NC-siRNA or mdr1a-siRNA 2 days before TP dose. For TP + tariquidar group, the mice were received an intravenous tariquidar dose 20 min prior to the TP injection. Blood samples were collected at 2, 5, 10, 15, 30, 60 and 120 min after TP dosing. To assess the liver exposure of TP, liver tissue samples were collected from another set of mice at 5, 30, 60 and 120 min after dosing. Three TP groups were design for this experiment, including TP + NC-siRNA group, TP + mdr1a-siRNA group and TP + tariquidar group. The liver tissue samples were weighed and then homogenized in 10 volume (w:v) of ice-cold saline. The concentrations of TP in plasma and liver tissue were measured by a validated LC-MS/MS method. Prior to the above animal study, a preliminary experiment was performed to assess the possible differences in liver P-gp protein expression (Figure S1) and TP plasma kinetics between NC-siRNA treated mice and normal mice (with saline) (Figure S2 and supplemental Table 1). […] Therefore, NC-siRNA group was used as the control in the following animal study.
The TP in plasma and tissue samples was quantitatively analyzed by a published LC-MS/MS method. The method was slightly modified and validated for analysis of plasma and liver tissue samples. Plasma and tissue homogenate were pretreated with 3-fold volume of methanol-acetonitrile (1:1, v/v) containing 20 ng/ml propranolol to precipitate proteins, and then centrifuged at 4°C, 14,000 g for 10 min. The supernatant (10 μl) was injected into LC-MS/MS for analysis. An Aglient 6410B triple quadrupole mass spectrometer equipped with Agilent1290 Infinity UHPLC system (Agilent Technologies, Santa Clara, CA) was used. TP and propranolol (internal standard, IS) were eluted from an Agilent C18 column (dp = 3.5 μm, 2.1 × 50 mm, Agilent, MA) using a mobile phase gradient (A: water with 0.1% formic acid and 2.5 mM ammonium formate, B: acetonitrile with 0.1% formic acid). The gradient was run as: 0–2.5 min hold at 95% B; 2.5–3 min, a linear gradient to 10% B; 3–4 min hold at 10% B. Flow rate was 0.2 ml/min. TP and propranolol were detected in positive ion mode using single reaction monitoring: TP, m/z 378.1/360.1, IS, m/z 260.0/116.0. Under the above optimized condition, no significant endogenous interferences were detected at the peak regions for TP and IS in all the biological specimens. The calibration curves of TP were linear (r^2 > 0.99) over the concentration range of 1–1000 ng/ml. The lower limit of quantification was at 1 ng/ml. The intra and inter-day precisions (RSD) were all below 11% and the assay accuracies (RE) were in the range from 87% to 113%. The recovery was above 80% for both plasma and tissue samples.
Toxicokinetic parameters, including area under the plasma concentration-time curve (AUC), volume of distribution (Vd), clearance (CL), mean residence time (MRT) and terminal elimination half-life (t1/2), were calculated by non-compartmental analysis using WinNonlin 5.2 software (Pharsight Corporation, CA, USA). All the data were expressed as mean ± SD. Differences between groups were compared by Student’s t-test for analysis of unpaired data or one-way ANOVA. Statistical significance was accepted at P < 0.05.

[2] = tested on: BALB/C mice; assay: Liver histopathology (HE staining) in mice; assay type: in vivo; details: TP 1 mg/kg iv, 24 h, TP = NC-siRNA group, tariquidar and mdr1a-1 siRNA = given before TP
Experimental: For TP plasma kinetic study and toxicological evaluation, mice were divided into four groups (n = 5 each) to collect blood and tissue samples: (1) normal + saline group; (2) 1.0 mg/kg TP + 15 nmol NC-siRNA group; (3) 1.0 mg/kg TP + 15 nmol mdr1a-siRNA group; (4) 1.0 mg/kg TP + 10 mg/kg tariquidar group. In order to avoid the complication caused by drug absorption or possible intestinal first-pass effect, TP and the inhibitor were intravenously administrated to mice. The siRNA group was intravenously injected with NC-siRNA or mdr1a-siRNA 2 days before TP dose. For TP + tariquidar group, the mice were received an intravenous tariquidar dose 20 min prior to the TP injection. Blood samples were collected at 2, 5, 10, 15, 30, 60 and 120 min after TP dosing. To assess the liver exposure of TP, liver tissue samples were collected from another set of mice at 5, 30, 60 and 120 min after dosing. […] The concentrations of TP in plasma and liver tissue were measured by a validated LC-MS/MS method. […]
(§2) At 24 h of TP treatment, blood and liver tissue samples were collected from the mice in plasma kinetic study. Serum ALT and AST levels were determined with a CL8000 automated biochemical analyzer (Shimadzu, Japan) after serum was separated by centrifugation at 900 g for 10 min. […] The total protein concentration was quantified by the BCA assay. Bcl-2 and Bax proteins were measured by western blot.

[3] = tested on: BALB/C mice; assay: Hepatic MDA content and SOD activity in mice; assay type: in vivo; details: 24 h; for Hepatic MDA level, fold increase: significance vs normal group
Experimental: as §1, §2

[4] = Preliminary experiment: effect of NC-siRNA on pharmacokinetics of TP in mice; assay type: in vivo; details: mice, plasma; for AUC(0-t) / Cmax / MRT / Vd / clearance: 1 mg/kg
Experimental: Effect of NC-siRNA on pharmacokinetic of TP
Mice were divided into two groups to collect blood samples (n=5 each): (1) 1.0 mg/kg TP + saline group; (2) 1.0 mg/kg TP + 15 nmol NC-siRNA group. The siRNA group was intravenously injected with NC-siRNA 2 days before TP dose. Blood samples were collected at 2, 5, 10, 15, 30, 60 and 120 min after TP dosing. The concentrations of TP in plasma and liver were measured by a validated LC-MS/MS method.

[5] = tested on: CYP reductase KO mice; design: method as in PMID 21596114; details: cited from earlier work
[6] = C57, mouse, iv, 1 mg/kg, 15 nmol NC-siRNA iv 2 days before (control)
[7] = C57, mouse, iv, 1 mg/kg, 15 nmol mdr1a-siRNA iv 2 days before
[8] = C57, mouse, iv, 1 mg/kg, with tariquidar 10 mg/kg iv, 20 min before TP, tariquidar 10 mg/kg iv 20 min prior
[9] = 15 nmol NC-siRNA iv 2 days before (control)
[10] = 15 nmol mdr1a-siRNA iv 2 days before
[11] = C57, mouse, iv, TP 1.0 mg/kg + saline
[12] = C57, mouse, iv, TP 1.0 mg/kg + 15 nmol NC-siRNA iv 2 days before

SMILES: CC(C)[C@]12O[C@H]1[C@@H]1O[C@]13[C@]1(O[C@H]1C[C@H]1C4=C(CC[C@@]13C)C(=O)OC4)[C@@H]2O [TP, Triptolide]
- MRT ([1]; C57, mouse, 15 nmol NC-siRNA iv 2 days before (control)): 20.4 ± 7.8 min
- AUC(0-t) [1, 6]: 104 ± 9.6 ng·h/mL
- Vd [1, 6]: 4.8 ± 1.1 L/kg
- half-life [1, 6]: 20.4 ± 8.4 min
- Cmax ([1]; C57, mouse, iv, 1 mg/kg, 15 nmol NC-siRNA iv 2 days before (control), read-out: Cmax): 413 ± 74 ng/mL
- AUC(0-t) [1, 7]: 154 ± 30.2 ng·h/mL
- Vd [1, 7]: 3.3 ± 0.7 L/kg
- half-life [1, 7]: 29.4 ± 13.8 min
- Cmax ([1]; C57, mouse, iv, 1 mg/kg, 15 nmol mdr1a-siRNA iv 2 days before, read-out: Cmax): 510 ± 94 ng/mL
- AUC(0-t) [1, 8]: 146 ± 24.6 ng·h/mL
- Vd [1, 8]: 3.9 ± 1.3 L/kg
- half-life [1, 8]: 29.4 ± 13.2 min
- Cmax ([1]; C57, mouse, iv, 1 mg/kg, with tariquidar 10 mg/kg iv, 20 min before TP, tariquidar 10 mg/kg iv 20 min prior, read-out: Cmax): 472 ± 66.5 ng/mL
- CL [1, 9]: 9564.0 ± 1024.2 mL/min/kg
- Cmax [1, 9]: 413.1 ± 74.2 ng/mL
- CL [1, 10]: 5755.4 ± 1200.1 mL/min/kg
- Cmax [1, 10]: 509.7 ± 94.1 ng/mL
- MRT ([1]; mouse, 15 nmol mdr1a-siRNA iv 2 days before): 30.6 ± 13.8 min
- MRT ([1]; mouse, with tariquidar 10 mg/kg iv, 20 min before TP, tariquidar 10 mg/kg iv 20 min prior): 30 ± 13.2 min
- Histopathological changes in liver (HE) [2]: hepatocellular hydropic degeneration and vacuolization
- Hepatic MDA level, fold increase ([3]; TP 1 mg/kg iv + mdr1a-siRNA): 1.6 fold
- Hepatic MDA level, fold increase ([3]; TP 1 mg/kg iv + tariquidar 10 mg/kg): 1.3 fold
- Hepatic SOD activity ([3]; all three TP groups, significant only with tariquidar or mdr1a-siRNA): reduction
- half-life [4, 11]: 12.6 ± 3 min
- AUC(0-t) [4, 12]: 99.1 ± 11.7 ng·h/mL
- Cmax [4, 12]: 330 ± 18.2 ng/mL
- MRT [4, 12]: 15.6 ± 2.4 min
- Vd [4, 12]: 3.1 ± 0.6 L/kg
- clearance [4, 12]: 173 mL/min/kg
- AUC(0-t) [4, 11]: 104 ± 13.4 ng·h/mL
- Cmax [4, 11]: 351 ± 10.9 ng/mL
- MRT [4, 11]: 13.8 ± 1.8 min
- Vd [4, 11]: 3 ± 0.3 L/kg
- clearance [4, 11]: 165 mL/min/kg
- t1/2 ([4]; TP 1.0 mg/kg + 15 nmol NC-siRNA iv 2 days before): 12.6 ± 3.6 min
- Increase fold of TP hepatic exposure ([5]; at 120 min): about 2 fold
- Increase in AST level [5]: about 2 fold
